ChEMBL document CHEMBL3525954, “Evaluation of hepatic disposition of paroxetine using sandwich-cultured rat and human hepatocytes” (Drug Metab Dispos, 2013)

What was measured:
[1] = Drug metabolism in 4 days of sandwich-cultured human hepatocytes treated with at 1 uM of paroxetine after 24 hrs by radio-chromatogram analysis; format: ADME, cell-based, Hepatocyte; conditions: 96 h
[2] = Drug metabolism in human hepatocytes treated with at 1 uM of paroxetine after 3 hrs by radio-chromatogram analysis; format: ADME, cell-based, Hepatocyte
[3] = Drug metabolism in 4 days of sandwich-cultured Sprague-Dawley rat hepatocytes treated with at 1 uM of paroxetine by radio-chromatogram analysis; format: ADME, cell-based, Hepatocyte; conditions: 96 h, TDE = time-dependent effect
[4] = Drug metabolism in 4 days of sandwich-cultured human hepatocytes assessed as biliary excretion index treated with at 1 uM of paroxetine after 0.025 to 24 hrs by radio-chromatogram analysis; format: ADME, tissue-based, Bile, Hepatocyte; conditions: 96 h
[5] = Drug metabolism in 4 days of sandwich-cultured Sprague-Dawley rat hepatocytes assessed as biliary excretion index treated with at 1 uM of paroxetine after 0.025 to 24 hrs by radio-chromatogram analysis; format: ADME, tissue-based, Bile, Hepatocyte; conditions: 96 h
[6] = Drug uptake in rat liver […] assessed as BCRP-mediated drug transport at 0.5 uM up to 2 mins by liquid scintillation counting in presence of ATP; format: ADME, subcellular
[7] = Drug metabolism in Sprague-Dawley rat hepatocytes treated with at 1 uM of paroxetine by radio-chromatogram analysis; format: ADME, cell-based, Hepatocyte; conditions: TDE = time-dependent effect
[8] = Drug metabolism in 4 days of sandwich-cultured Sprague-Dawley rat hepatocytes assessed as parent compound level at 1 uM by radio-chromatogram analysis; format: ADME, cell-based, Hepatocyte; conditions: 96 h, TDE = time-dependent effect
[9] = Drug metabolism in human hepatocytes assessed as parent compound level at 1 uM after 3 hrs by radio-chromatogram analysis; format: ADME, cell-based, Hepatocyte; conditions: read-out: Drug metabolism
[10] = Drug metabolism in 4 days of sandwich-cultured Sprague-Dawley rat hepatocytes assessed as parent compound level at 1 uM after 24 hrs by radio-chromatogram analysis; format: ADME, cell-based, Hepatocyte; conditions: read-out: Drug metabolism
[11] = Drug metabolism in Sprague-Dawley rat hepatocytes assessed as (2S,3R,4S,5S,6R)-2-(4-(((4R)-4-(4-fluorophenyl)piperidin-3-yl)methoxy)-2-methoxyphenoxy)-6-(hydroxymethyl)tetrahydro-2H-pyran-3,4,5-triol level at 1 uM by radio-chromatogram analysis; format: ADME, cell-based, Hepatocyte; conditions: TDE = time-dependent effect
[12] = Drug metabolism in 4 days of sandwich-cultured human hepatocytes assessed as parent compound level at 1 uM after 24 hrs by radio-chromatogram analysis; format: ADME, cell-based, Hepatocyte; conditions: read-out: Drug metabolism
[13] = Drug metabolism in 4 days of sandwich-cultured Sprague-Dawley rat hepatocytes assessed as 4-(((4R)-4-(4-fluorophenyl)piperidin-3-yl)methoxy)-2-methoxyphenyl hydrogen sulfate level at 1 uM by radio-chromatogram analysis; format: ADME, cell-based, Hepatocyte; conditions: 96 h, TDE = time-dependent effect
[14] = Drug metabolism in 4 days of sandwich-cultured Sprague-Dawley rat hepatocytes assessed as (2S,3R,4S,5S,6R)-2-(4-(((4R)-4-(4-fluorophenyl)piperidin-3-yl)methoxy)-2-methoxyphenoxy)-6-(hydroxymethyl)tetrahydro-2H-pyran-3,4,5-triol level at 1 uM by radio-chromatogram analysis; format: ADME, cell-based, Hepatocyte; conditions: 96 h, TDE = time-dependent effect
[15] = Drug metabolism in Sprague-Dawley rat hepatocytes assessed as parent compound level at 1 uM by radio-chromatogram analysis; format: ADME, cell-based, Hepatocyte; conditions: TDE = time-dependent effect
[16] = Drug metabolism in Sprague-Dawley rat hepatocytes assessed as 4-(((4R)-4-(4-fluorophenyl)piperidin-3-yl)methoxy)-2-methoxyphenyl hydrogen sulfate level at 1 uM by radio-chromatogram analysis; format: ADME, cell-based, Hepatocyte; conditions: TDE = time-dependent effect
[17] = Drug metabolism in Sprague-Dawley rat hepatocytes assessed as parent compound level at 1 uM after 3 hrs by radio-chromatogram analysis; format: ADME, cell-based, Hepatocyte; conditions: read-out: Drug metabolism

Row | Drug metabolism [8] | remaining at 3 h, 1 µM [9] | remaining at 96 h, 1 µM [10] | Drug metabolism [11] | remaining at 96 h, 1 µM [12] | Drug metabolism [13] | Drug metabolism [14] | Drug metabolism [15] | Drug metabolism [16] | remaining at 3 h, 1 µM [17] | SMILES | Drug metabolism [1] | Drug metabolism [2] | Drug metabolism [3] | Drug metabolism [4] | Drug metabolism [5] | Drug uptake [6] | Drug metabolism [7]
1 |  |  |  |  |  |  |  |  |  |  | COc1cc(OC[C@@H]2CNCC[C@H]2c2ccc(F)cc2)ccc1OS(=O)(=O)O | metabolite_detected | metabolite_detected | tde | metabolite_detected | metabolite_detected | Not Active | tde
2 |  |  |  |  |  |  |  |  |  |  | COc1cc(OC[C@@H]2CNCC[C@H]2c2ccc(F)cc2)ccc1O[C@@H]1O[C@H](C(=O)O)[C@@H](O)[C@H](O)[C@H]1O | metabolite_detected | metabolite_detected | tde | metabolite_detected | metabolite_detected | Active | tde
3 | tde | 71.4% | 36.6% | tde | 52.8% | tde | tde | tde | tde | 29.7% | Fc1ccc([C@@H]2CCNC[C@H]2COc2ccc3c(c2)OCO3)cc1.O=C(O)/C=C\C(=O)O |  |  |  |  |  |  | 
